The source of these data is ChEMBL document CHEMBL3745707 (Bioorg Med Chem, 2016).

One assay can be described thus: cells. It is filed as functional, cell-based. Conditions: Homo sapiens, DU-145, 72 h.
A further assay relates to K562. In words: cells. Format: functional, cell-based. The following applies: Homo sapiens, K562, 72 h.

Broadly, the IC50 is the midpoint of a concentration-inhibition curve. Lower therefore signals higher potency. Turning to `O=c1c(S(=O)(=O)c2ccc(F)cc2F)cc2cnc(Nc3ccc4[nH]ccc4c3)nc2n1CC1CCCC1`, the half-inhibitory concentration (IC50) stood at 10 µM in “cells” and 7 µM in the assay with K562.

For `Cc1ccc(S(=O)(=O)c2cc3cnc(Nc4cccc5cccnc45)nc3n(C)c2=O)cc1`, the IC50 in “cells” and with K562 was 10 µM in each case.

For `Cn1c(=O)c(S(=O)(=O)c2ccc(Cl)cc2)cc2cnc(Nc3cccc4[nH]ccc34)nc21`, the IC50 in the assay “cells” and with K562 was 5 µM in each case.

With `COC(=O)Cn1ccc2cc(Nc3ncc4cc(S(=O)(=O)c5ccc(F)cc5F)c(=O)n(C)c4n3)ccc21`, the IC50 in “cells” and with K562 was 5 µM throughout.

For `Cn1c(=O)c(S(=O)(=O)Nc2ccc(F)cc2)cc2cnc(Nc3ccc4[nH]ccc4c3)nc21`, the IC50 in the assay “cells” and with K562 was 5 µM in each case.

Take `O=c1c(S(=O)(=O)c2ccc(F)cc2F)cc2cnc(Nc3ccc4[nH]ccc4c3)nc2n1C1CCCCC1`: the half-maximal inhibitory concentration (IC50) in the assay “cells” and with K562 was 10 µM each time.

`CCn1c(=O)c(S(=O)(=O)c2ccc(F)cc2F)cc2cnc(Nc3ccc4[nH]ccc4c3)nc21`: the IC50 in the assay “cells” and with K562 was 0.75 µM each time.

As to `Cn1c(=O)c(S(=O)(=O)c2ccc(F)cc2F)cc2cnc(Nc3ccc4occc4c3)nc21`, the IC50 in the assay “cells” and in the assay with K562 was 15 µM in each case.

For `O=c1c(S(=O)(=O)c2ccc(F)cc2F)cc2cnc(Nc3ccc4[nH]ccc4c3)nc2n1C1CCCC1`, the IC50 in “cells” and in the assay with K562 was 5 µM throughout.

Turning to `Cn1c(=O)c(S(=O)(=O)c2ccc(F)cc2)cc2cnc(Nc3cnc4[nH]ccc4c3)nc21`, the IC50 in “cells” came out at 0.5 µM; with K562 it was 0.75 µM.

Regarding `Cc1ccc(S(=O)(=O)c2cc3cnc(Nc4ccc5ncccc5c4)nc3n(C)c2=O)cc1`, the IC50 in “cells” and in the assay with K562 was 10 µM in each case.

Regarding `Cn1c(=O)c(S(=O)(=O)c2ccc(Cl)cc2Cl)cc2cnc(Nc3ccc4[nH]ccc4c3)nc21`, the IC50 in “cells” and with K562 was 1 µM throughout.

With `Cn1c(=O)c(S(=O)(=O)c2ccccc2)cc2cnc(Nc3ccc4ncccc4c3)nc21`, the IC50 in the assay “cells” came out at 50 µM; in the assay with K562 it was 100 µM.

As for `CN1CCN(c2ccc(Nc3ncc4cc(S(=O)(=O)c5ccc(F)cc5F)c(=O)n(C)c4n3)cc2)CC1`, the half-maximal inhibitory concentration (IC50) in “cells” and in the assay on K562 was 5 µM in each case.

Regarding `Cn1c(=O)c(S(=O)(=O)c2ccc(F)cc2)cc2cnc(Nc3ccc4cc[nH]c4c3)nc21`, the IC50 in the assay “cells” and in the assay with K562 was 10 µM each time.

Take `Cn1c(=O)c(S(=O)(=O)c2ccccc2)cc2cnc(Nc3cnc4[nH]ccc4c3)nc21`: the IC50 came to 1 µM in “cells” and 5 µM with K562.

In the case of `Cc1ccc(S(=O)(=O)c2cc3cnc(Nc4cnc5c(c4)CC(=O)N5)nc3n(C)c2=O)cc1`, the IC50 in the assay “cells” and in the assay with K562 was 15 µM in each case.

Consider `Cn1c(=O)c(S(=O)(=O)c2ccc(Cl)cc2)cc2cnc(Nc3cnc4ccccc4c3)nc21`, for which the IC50 in the assay “cells” and with K562 was 15 µM in each case.

With `Cc1ccc(S(=O)(=O)c2cc3cnc(Nc4cccc5[nH]ccc45)nc3n(C)c2=O)cc1`, the IC50 in “cells” came to 10 µM; in the assay on K562, 5 µM.

Consider `Cn1c(=O)c(S(=O)(=O)Cc2ccc(F)cc2F)cc2cnc(Nc3ccc4[nH]ccc4c3)nc21`, for which the IC50 in the assay “cells” and with K562 was 1 µM throughout.

Turning to `Cn1c(=O)c(S(=O)(=O)c2ccc(F)cc2F)cc2cnc(Nc3ccc4cccc(O)c4n3)nc21`, the IC50 in “cells” and in the assay with K562 was 5 µM in each case.

On to `Cn1c(=O)c(S(=O)(=O)c2ccc(F)cc2)cc2cnc(Nc3ccc4[nH]ncc4c3)nc21`, for which the figures for the IC50 in the assay “cells” and with K562 were 5 µM and 10 µM, respectively.

As for `O=c1[nH]c2nc(Nc3ccc4[nH]ccc4c3)ncc2cc1S(=O)(=O)c1ccc(F)cc1F`, the IC50 in “cells” and in the assay on K562 was 15 µM each time.

Consider `Cn1c(=O)c(S(=O)(=O)c2ccc(C(=O)O)cc2)cc2cnc(Nc3ccc4[nH]ccc4c3)nc21`, for which the figures for the concentration for half-maximal inhibition (IC50) in “cells” and with K562 were 10 µM and 5 µM, respectively.
